Test: Inhibition of SARS-CoV 3C-like protease using Dabcyl-KTSAVLQ-SGFRKME-Edans peptide as substrate incubated for 60 mins by FRET assay

Going from `COc1cccc2[nH]c(C(=O)N[C@@H](CC(C)C)C(=O)N[C@@H](C[C@@H]3CCNC3=O)C(=O)COC(=O)[C@H]3CCCCN3C)cc12` to `COc1cccc2[nH]c(C(=O)N[C@@H](CC(C)C)C(=O)N[C@@H](C[C@@H]3CCNC3=O)C(=O)COC(=O)[C@H]3CCCN3C)cc12`, the Ki falls from 1.42 nM to 0.0321 nM (44-fold). The second binds more tightly here.

Going from `COc1cccc2[nH]c(C(=O)N[C@@H](CC(C)C)C(=O)N[C@@H](C[C@@H]3CCNC3=O)C(=O)COC(=O)c3c(C)ncnc3C)cc12` to `COc1cccc2[nH]c(C(=O)N[C@@H](CC(C)C)C(=O)N[C@@H](C[C@@H]3CCNC3=O)C(=O)COC(=O)CN(C)C)cc12`, the Ki rises from 0.928 nM to 2.98 nM (3.2-fold). The first binds more tightly here.

Going from `COc1cccc2[nH]c(C(=O)N[C@@H](CC(C)C)C(=O)N[C@@H](C[C@@H]3CCNC3=O)C(=O)COC(=O)[C@@H]3CCCN3C)cc12` to `COc1cccc2[nH]c(C(=O)N[C@@H](CC(C)C)C(=O)N[C@@H](C[C@@H]3CCNC3=O)C(=O)COC(=O)c3ccncc3)cc12`, the Ki falls from 2.47 nM to 0.598 nM (4.1-fold).

Source: ChEMBL document CHEMBL4828780, “Novel Compounds for Preventing SARS-CoV-2 Viral Replication and Treating COVID-19” (ACS Med Chem Lett, 2021)
